# Measured values published in publication PMC8976073 (Nature Communications, 2022).
# Where a SMILES comes first, the peptide text is derived from it. The star is where a group is joined. For = O=C*
# What was measured:
# FPR2 [1] = target: T1, FPR2 (Homo sapiens, UniProt P25090); assay: Competition binding: inhibition of WK(FITC)YMVm binding to FPR2 (wild type and mutants), HEK293F cells; conditions: FPR2 WT, mean ± SEM
# T1 construct: expressed in transfected cells; host or cells: HEK293F cells, pTT5 vector, co-transfected with GαΔ6qi4myr (1:2 w/w)
# T1 sequence (P25090 1-351): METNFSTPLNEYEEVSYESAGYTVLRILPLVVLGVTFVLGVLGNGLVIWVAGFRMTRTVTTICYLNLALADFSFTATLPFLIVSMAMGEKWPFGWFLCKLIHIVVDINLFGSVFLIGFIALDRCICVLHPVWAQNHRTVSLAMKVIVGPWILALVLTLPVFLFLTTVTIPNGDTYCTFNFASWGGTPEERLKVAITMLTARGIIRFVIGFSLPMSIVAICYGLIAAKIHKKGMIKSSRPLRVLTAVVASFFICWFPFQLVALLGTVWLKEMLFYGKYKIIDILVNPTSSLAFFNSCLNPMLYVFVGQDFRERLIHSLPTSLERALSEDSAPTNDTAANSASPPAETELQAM
# Method: (§1) The genes of wild-type FPR1 and FPR2 and mutants with a Flag tag at the N termini were cloned into pTT5 vector (Invitrogen) and expressed in HEK293F cells (Invitrogen). Cells were harvested 48 h post transfection with 1 μg ml^−1 plasmid. Cell-surface expression of the receptors was measured by mixing 10 μl cells with 15 μl of TBS buffer supplemented with 4% BSA, 20% (v/v) viability-staining solution 7-AAD (Invitrogen, Cat#00-6993-50), and 0.1% (v/v) anti-FLAG M2-FITC antibody (Sigma, Cat#F4049) at 4 °C for 20 min. After incubation, 175 μl of TBS buffer was added and the fluorescent signal was measured using a flow-cytometry reader (Guava easyCyte HT, Millipore). Then, the cells were washed and resuspended to a final concentration of 1 × 10^6 cells per ml in Hanks’ Balanced Salt Solution (HBSS) buffer supplemented with 0.5% bovine serum albumin (BSA) and 20 mM HEPES, pH 7.4.
# (§2) The mean fluorescent intensity of each well was then read by the FCM reader. Total binding and nonspecific binding were measured in the absence and presence of the unlabeled ligand (200 μM WKYMVm), respectively. […] Mean fluorescent-intensity values were measured by flow cytometry. Data were analyzed using Prism 8.0 (GraphPad software).
# FPR2 [2] = target: T2, FPR2 (Homo sapiens, UniProt P25090, S211L); assay: as above; conditions: FPR2 Construct 2, mean ± SEM
# T2 construct: expressed in transfected cells; host or cells: HEK293F cells, pTT5 vector
# T2 sequence (P25090 with tags, fused parts or gaps S211L): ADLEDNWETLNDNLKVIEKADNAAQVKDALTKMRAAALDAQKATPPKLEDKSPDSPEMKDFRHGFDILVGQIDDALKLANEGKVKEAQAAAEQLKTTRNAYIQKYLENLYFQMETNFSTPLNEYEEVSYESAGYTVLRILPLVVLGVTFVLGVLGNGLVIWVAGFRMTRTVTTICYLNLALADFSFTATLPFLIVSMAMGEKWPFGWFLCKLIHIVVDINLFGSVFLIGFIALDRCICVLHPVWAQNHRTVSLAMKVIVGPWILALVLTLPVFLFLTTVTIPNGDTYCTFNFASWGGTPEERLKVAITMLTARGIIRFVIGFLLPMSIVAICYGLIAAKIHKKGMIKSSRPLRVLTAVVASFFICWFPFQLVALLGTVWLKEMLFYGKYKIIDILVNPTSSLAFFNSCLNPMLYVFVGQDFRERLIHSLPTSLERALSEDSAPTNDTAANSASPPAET
# Method: as §1, §2
# FPR2 [3] = target: T1, FPR2; assay: Inositol-phosphate (IP) accumulation assay, FPR2 (wild type and mutants) with chimeric GαΔ6qi4myr in HEK293F cells; assay type: cell-based; conditions: FPR2 WT; mean ± SEM; SEM
# Method: Flag-tagged wild-type FPR1 and FPR2 and mutants were cloned into the pTT5 vector and expressed in HEK293F cells. Cells were cotransfected with the plasmids of receptor and a chimeric Gα protein GαΔ6qi4myr, which redirects the Gαi signaling pathway to the Gαq phospholipase-C pathway, at a ratio of 1:2 (w/w), and were harvested 48 h post transfection. The cell-surface expression was measured as described above.
# The IP-One Gq assay kit (Cisbio Bioassays, 62IPAPEB) was used to measure the peptide agonist-induced IP production. […] Then, the cells were supplemented with 3 μl cryptate-labeled anti-IP1 monoclonal antibody (1:20 diluted in lysis and detection buffer) and 3 μl d2-labeled IP1, and incubated at room temperature for another 1 h. […] The accumulation of IP1, EC50, and pEC50 were calculated using nonlinear regression (curve fit) according to a standard dose–response curve in GraphPad Prism 8.0 (GraphPad software).
# FPR1 = assay: Competition binding: inhibition of WK(FITC)YMVm binding to FPR1 (wild type and mutants), HEK293F cells; set-up: species or system human; conditions: FPR1 F81L, F102H, Y257F and their combination
# Method: as §1, §2
# FPR2 [4] = conditions: cited from earlier work
# Text: The role of these residues in determining ligand selectivity was investigated by mutagenesis studies.
Compound,Ki (FPR2 [1]),other results
CC[C@H](C)[C@H](NC(=O)[C@H](CCC(=O)O)NC(=O)[C@H](CO)NC(=O)[C@@H](NC(=O)[C@H](CC(C)C)NC(=O)[C@H](CC(C)C)NC(=O)[C@H](CC(C)C)NC(=O)[C@H](CC(C)C)NC(=O)[C@H](CS)NC(=O)[C@H](CO)NC(=O)[C@H](Cc1ccccc1)NC(=O)CNC(=O)[C@H](CCCNC(=N)N)NC(=O)[C@@H]1CCCN1C(=O)[C@H](Cc1c[nH]c2ccccc12)NC(=O)[C@H](CCSC)NC=O)[C@@H](C)O)C(=O)N[C@@H](CC(=O)O)C(=O)N[C@@H](CC(C)C)C(=O)N1CCC[C@H]1C(=O)N[C@H](C(=O)N[C@@H](CCCCN)C(=O)N[C@@H](CCCNC(=N)N)C(=O)N[C@@H](CCCNC(=N)N)C(=O)N[C@@H](C)C(=O)O)C(C)C [A2W] (For-MWPRGFSCLLLLTSEIDLPVKRRA-OH),46.8 nM,–
CC[C@H](C)[C@H](NC(=O)[C@H](CCC(=O)O)NC(=O)[C@H](CO)NC(=O)[C@@H](NC(=O)[C@H](CC(C)C)NC(=O)[C@H](CC(C)C)NC(=O)[C@H](CC(C)C)NC(=O)[C@H](CC(C)C)NC(=O)[C@H](CS)NC(=O)[C@H](CO)NC(=O)[C@H](C)NC(=O)CNC(=O)[C@H](CCCNC(=N)N)NC(=O)[C@@H]1CCCN1C(=O)[C@H](C)NC(=O)[C@H](CCSC)NC=O)[C@@H](C)O)C(=O)N[C@@H](CC(=O)O)C(=O)N[C@@H](CC(C)C)C(=O)N1CCC[C@H]1C(=O)N[C@H](C(=O)N[C@@H](CCCCN)C(=O)N[C@@H](CCCNC(=N)N)C(=O)N[C@@H](CCCNC(=N)N)C(=O)N[C@@H](C)C(=O)O)C(C)C [F6A] (For-MAPRGASCLLLLTSEIDLPVKRRA-OH),100 nM,–
CC[C@H](C)[C@H](NC(=O)[C@H](CCC(=O)O)NC(=O)[C@H](CO)NC(=O)[C@@H](NC(=O)[C@H](CC(C)C)NC(=O)[C@H](C)NC(=O)[C@H](CC(C)C)NC(=O)[C@H](CC(C)C)NC(=O)[C@H](CS)NC(=O)[C@H](CO)NC(=O)[C@H](Cc1ccccc1)NC(=O)CNC(=O)[C@H](CCCNC(=N)N)NC(=O)[C@@H]1CCCN1C(=O)[C@H](C)NC(=O)[C@H](CCSC)NC=O)[C@@H](C)O)C(=O)N[C@@H](CC(=O)O)C(=O)N[C@@H](CC(C)C)C(=O)N1CCC[C@H]1C(=O)N[C@H](C(=O)N[C@@H](CCCCN)C(=O)N[C@@H](CCCNC(=N)N)C(=O)N[C@@H](CCCNC(=N)N)C(=O)N[C@@H](C)C(=O)O)C(C)C [L11A] (For-MAPRGFSCLLALTSEIDLPVKRRA-OH),631 nM,–
CC[C@H](C)[C@H](NC(=O)[C@H](CCC(=O)O)NC(=O)[C@H](CO)NC(=O)[C@@H](NC(=O)[C@H](C)NC(=O)[C@H](CC(C)C)NC(=O)[C@H](CC(C)C)NC(=O)[C@H](CC(C)C)NC(=O)[C@H](CS)NC(=O)[C@H](CO)NC(=O)[C@H](Cc1ccccc1)NC(=O)CNC(=O)[C@H](CCCNC(=N)N)NC(=O)[C@@H]1CCCN1C(=O)[C@H](C)NC(=O)[C@H](CCSC)NC=O)[C@@H](C)O)C(=O)N[C@@H](CC(=O)O)C(=O)N[C@@H](CC(C)C)C(=O)N1CCC[C@H]1C(=O)N[C@H](C(=O)N[C@@H](CCCCN)C(=O)N[C@@H](CCCNC(=N)N)C(=O)N[C@@H](CCCNC(=N)N)C(=O)N[C@@H](C)C(=O)O)C(C)C [L12A] (For-MAPRGFSCLLLATSEIDLPVKRRA-OH),832 nM,–
CC[C@H](C)[C@H](NC(=O)[C@H](CCC(=O)O)NC(=O)[C@H](CO)NC(=O)[C@@H](NC(=O)[C@H](CC(C)C)NC(=O)[C@H](CC(C)C)NC(=O)[C@H](CC(C)C)NC(=O)[C@H](CC(C)C)NC(=O)[C@H](CS)NC(=O)[C@H](CO)NC(=O)[C@H](Cc1ccccc1)NC(=O)CNC(=O)[C@H](CCCNC(=N)N)NC(=O)[C@H](C)NC(=O)[C@H](C)NC(=O)[C@H](CCSC)NC=O)[C@@H](C)O)C(=O)N[C@@H](CC(=O)O)C(=O)N[C@@H](CC(C)C)C(=O)N1CCC[C@H]1C(=O)N[C@H](C(=O)N[C@@H](CCCCN)C(=O)N[C@@H](CCCNC(=N)N)C(=O)N[C@@H](CCCNC(=N)N)C(=O)N[C@@H](C)C(=O)O)C(C)C [P3A] (For-MAARGFSCLLLLTSEIDLPVKRRA-OH),813 nM,–
CC[C@H](C)[C@H](NC(=O)[C@H](CCC(=O)O)NC(=O)[C@H](CO)NC(=O)[C@@H](NC(=O)[C@H](CC(C)C)NC(=O)[C@H](CC(C)C)NC(=O)[C@H](CC(C)C)NC(=O)[C@H](CC(C)C)NC(=O)[C@H](CS)NC(=O)[C@H](CO)NC(=O)[C@H](Cc1ccccc1)NC(=O)CNC(=O)[C@H](C)NC(=O)[C@@H]1CCCN1C(=O)[C@H](C)NC(=O)[C@H](CCSC)NC=O)[C@@H](C)O)C(=O)N[C@@H](CC(=O)O)C(=O)N[C@@H](CC(C)C)C(=O)N1CCC[C@H]1C(=O)N[C@H](C(=O)N[C@@H](CCCCN)C(=O)N[C@@H](CCCNC(=N)N)C(=O)N[C@@H](CCCNC(=N)N)C(=O)N[C@@H](C)C(=O)O)C(C)C [R4A] (For-MAPAGFSCLLLLTSEIDLPVKRRA-OH),282 nM,–
CC[C@H](C)[C@H](NC(=O)[C@H](CC(N)=O)NC(=O)[C@@H](NC(=O)[C@H](Cc1ccccc1)NC(=O)[C@H](Cc1ccc(O)cc1)NC(=O)[C@H](CCSC)NC=O)[C@@H](C)CC)C(=O)N[C@@H](CC(C)C)C(=O)N[C@H](C(=O)N[C@@H](CC(C)C)C(=O)O)[C@@H](C)O [fM9] (For-MYFINILTL-OH),1410 nM,Ki (FPR2 [2]): 2630 nM; EC50 (FPR2 [3]): 813 nM
"CSCC[C@H](NC=O)C(=O)N[C@@H](CC(C)C)C(=O)N[C@@H](Cc1ccccc1)C(=O)O [fMLF, N-formyl–Met–Leu–Phe]",–,effect of mutations on binding affinity (in words) (FPR1): little effect on the binding affinity; agonism at FPR2 (in words) (FPR2 [4]): weak agonist
Humanin [HN],–,agonistic activity FPR2 versus FPR1 (in words) (FPR2 [4]): much higher agonistic activity at FPR2 than at FPR1; fold higher binding affinity to FPR2 than Aβ42 (FPR2 [4]): over 15 fold
fMLFK [formylated tetrapeptide with a basic C-terminal residue],–,binding to FPR2 (in words) (FPR2 [4]; compared with fMLFE): more favorable for binding to FPR2
